Consider 13 molecules from patent publication US11130756B2, “[1,2,4]Triazolo[4,3-A]pyridinyl substituted indole compounds” (BRISTOL-MYERS SQUIBB COMPANY, priority 2017, dated 2021).

Type in all cases: cell-based
One experiment has as its target T1, human TLR7 (Homo sapiens, UniProt Q9NYK1).
T1 construct: host or cells: HEK-Blue cells
T1 sequence (Q9NYK1 27-1049): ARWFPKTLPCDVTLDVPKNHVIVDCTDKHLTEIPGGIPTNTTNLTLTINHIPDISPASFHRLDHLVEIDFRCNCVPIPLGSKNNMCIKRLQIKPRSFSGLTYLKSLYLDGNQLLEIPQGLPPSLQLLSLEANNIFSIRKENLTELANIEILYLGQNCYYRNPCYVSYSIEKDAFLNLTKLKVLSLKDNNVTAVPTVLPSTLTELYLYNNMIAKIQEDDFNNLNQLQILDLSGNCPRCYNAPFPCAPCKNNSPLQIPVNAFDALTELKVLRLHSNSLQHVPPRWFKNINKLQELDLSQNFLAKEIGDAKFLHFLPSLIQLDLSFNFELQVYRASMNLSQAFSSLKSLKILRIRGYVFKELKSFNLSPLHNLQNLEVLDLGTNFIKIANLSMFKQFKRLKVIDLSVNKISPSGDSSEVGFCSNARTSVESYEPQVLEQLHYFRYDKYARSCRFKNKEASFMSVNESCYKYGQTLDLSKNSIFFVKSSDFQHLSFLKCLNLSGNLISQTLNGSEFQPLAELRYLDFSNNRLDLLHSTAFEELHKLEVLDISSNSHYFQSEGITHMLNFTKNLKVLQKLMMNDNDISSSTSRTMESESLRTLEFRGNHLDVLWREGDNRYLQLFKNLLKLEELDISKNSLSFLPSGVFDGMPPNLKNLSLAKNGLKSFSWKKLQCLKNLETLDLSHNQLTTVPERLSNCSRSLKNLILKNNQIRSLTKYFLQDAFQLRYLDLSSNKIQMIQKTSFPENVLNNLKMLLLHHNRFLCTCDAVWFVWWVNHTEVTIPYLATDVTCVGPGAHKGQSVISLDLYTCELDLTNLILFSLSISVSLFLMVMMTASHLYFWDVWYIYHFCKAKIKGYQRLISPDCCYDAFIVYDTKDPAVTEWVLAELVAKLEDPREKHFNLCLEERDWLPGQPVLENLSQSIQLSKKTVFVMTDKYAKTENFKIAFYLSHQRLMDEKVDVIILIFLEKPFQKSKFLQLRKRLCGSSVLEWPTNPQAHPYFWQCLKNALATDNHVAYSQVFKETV
In words: TLR7 inhibition reporter assay (HEK-Blue, SEAP). The settings on record: HEK-Blue cells overexpressing human TLR7, gardiquimod 7.5 μM, 22 hour incubation. The procedure:
(§1) TLR7/8/9 Inhibition Reporter Assays
(§2) HEK-Blue™-cells (Invivogen) overexpressing human TLR7, TLR8 or TLR9 receptors were used for screening inhibitors of these receptors using an inducible SEAP (secreted embryonic alkaline phosphatase) reporter gene under the control of the IFN-β minimal promoter fused to five NF-κB and AP-1-binding sites. Briefly, cells are seeded into Greiner 384 well plates (15000 cells per well for TLR7, 20,000 for TLR8 and 25,000 for TLR9) and then treated with test compounds in DMSO to yield a final dose response concentration range of 0.05 nM-50 μM. After a 30 minute compound pre-treatment at room temperature, the cells are then stimulated with a TLR7 ligand (gardiquimod at a final concentration of 7.5 μM), TLR8 ligand (R848 at a final concentration of 15.9 μM) or TLR9 ligand (ODN2006 at a final concentration of 5 nM) to activate NF-κB and AP-1 which induce the production of SEAP. After a 22 hour incubation at 37° C., 5% CO2, SEAP levels are determined with the addition of HEK-Blue™ Detection reagent (Invivogen), a cell culture medium that allows for detection of SEAP, according to manufacturer's specifications. The percent inhibition is determined as the % reduction in the HEK-Blue signal present in wells treated with agonist plus DMSO alone compared to wells treated with a known inhibitor.
For orientation: Reporter assays use an easily measured gene product as a stand-in for the process of interest.

Another experiment deals with T2, human TLR8 (Homo sapiens, UniProt Q9NR97).
T2 construct: host or cells: HEK-Blue cells
T2 sequence (Q9NR97 27-1041): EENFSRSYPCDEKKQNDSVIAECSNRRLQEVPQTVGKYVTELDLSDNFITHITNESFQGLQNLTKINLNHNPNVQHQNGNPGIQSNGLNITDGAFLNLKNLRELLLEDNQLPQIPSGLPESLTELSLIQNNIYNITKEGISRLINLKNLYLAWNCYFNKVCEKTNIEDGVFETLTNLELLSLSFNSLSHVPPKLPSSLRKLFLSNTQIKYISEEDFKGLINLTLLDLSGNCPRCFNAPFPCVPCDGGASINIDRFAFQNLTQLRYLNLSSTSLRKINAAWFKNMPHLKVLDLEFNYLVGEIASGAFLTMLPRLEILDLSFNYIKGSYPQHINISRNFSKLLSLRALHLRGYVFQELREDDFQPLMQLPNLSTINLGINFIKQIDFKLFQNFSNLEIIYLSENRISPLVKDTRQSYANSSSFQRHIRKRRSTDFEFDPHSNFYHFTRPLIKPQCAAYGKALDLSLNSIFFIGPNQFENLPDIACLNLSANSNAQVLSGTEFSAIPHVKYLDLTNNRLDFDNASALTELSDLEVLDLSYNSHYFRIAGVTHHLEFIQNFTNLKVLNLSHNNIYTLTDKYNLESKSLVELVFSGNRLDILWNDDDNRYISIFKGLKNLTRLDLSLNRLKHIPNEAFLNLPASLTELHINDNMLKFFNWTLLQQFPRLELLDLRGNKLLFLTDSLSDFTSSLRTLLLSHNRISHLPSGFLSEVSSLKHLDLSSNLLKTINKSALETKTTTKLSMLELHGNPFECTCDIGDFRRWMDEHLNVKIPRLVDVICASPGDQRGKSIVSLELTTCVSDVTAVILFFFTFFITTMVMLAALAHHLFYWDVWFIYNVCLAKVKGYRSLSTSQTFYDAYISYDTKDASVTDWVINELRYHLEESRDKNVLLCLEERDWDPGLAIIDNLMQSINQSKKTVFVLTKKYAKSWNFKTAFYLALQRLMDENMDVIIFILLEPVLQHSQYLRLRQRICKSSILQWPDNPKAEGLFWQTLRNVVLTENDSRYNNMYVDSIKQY
Briefly: TLR8 inhibition reporter assay (HEK-Blue, SEAP). As to conditions: HEK-Blue cells overexpressing human TLR8, R848 15.9 μM, 22 hour incubation. How it is done:
as §1, §2

The next experiment concerns the target T3, human TLR9 (Homo sapiens, UniProt Q9NR96).
T3 construct: host or cells: HEK-Blue cells
T3 sequence (Q9NR96 26-1032): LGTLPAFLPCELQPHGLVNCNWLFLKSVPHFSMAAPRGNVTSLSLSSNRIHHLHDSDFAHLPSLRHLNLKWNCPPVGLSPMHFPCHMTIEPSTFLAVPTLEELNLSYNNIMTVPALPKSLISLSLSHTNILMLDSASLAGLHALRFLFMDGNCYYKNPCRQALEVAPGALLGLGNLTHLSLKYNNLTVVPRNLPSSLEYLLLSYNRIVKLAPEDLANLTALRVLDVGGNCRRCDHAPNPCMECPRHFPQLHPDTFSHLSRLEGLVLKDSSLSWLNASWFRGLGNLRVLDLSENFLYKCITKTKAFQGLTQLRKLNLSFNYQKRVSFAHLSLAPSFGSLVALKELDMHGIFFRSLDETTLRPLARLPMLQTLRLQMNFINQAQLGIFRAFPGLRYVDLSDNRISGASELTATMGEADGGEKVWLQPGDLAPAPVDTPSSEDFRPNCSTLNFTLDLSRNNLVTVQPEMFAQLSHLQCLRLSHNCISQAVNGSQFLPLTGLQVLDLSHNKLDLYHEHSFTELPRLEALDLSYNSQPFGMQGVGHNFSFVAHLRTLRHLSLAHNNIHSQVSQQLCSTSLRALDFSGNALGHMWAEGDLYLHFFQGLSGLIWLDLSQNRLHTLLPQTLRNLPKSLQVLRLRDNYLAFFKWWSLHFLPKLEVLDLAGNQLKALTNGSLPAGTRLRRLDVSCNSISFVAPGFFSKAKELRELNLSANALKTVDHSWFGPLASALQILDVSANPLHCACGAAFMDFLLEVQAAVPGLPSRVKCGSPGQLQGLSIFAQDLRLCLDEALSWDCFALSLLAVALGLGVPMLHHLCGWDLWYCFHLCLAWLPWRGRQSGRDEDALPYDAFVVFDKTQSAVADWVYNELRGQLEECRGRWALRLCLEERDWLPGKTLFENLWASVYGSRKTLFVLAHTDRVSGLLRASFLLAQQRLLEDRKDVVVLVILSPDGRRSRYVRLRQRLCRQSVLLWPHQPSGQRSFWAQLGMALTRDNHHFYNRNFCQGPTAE
Briefly: TLR9 inhibition reporter assay (HEK-Blue, SEAP). As to conditions: HEK-Blue cells overexpressing human TLR9, ODN2006 5 nM, 22 hour incubation. How it is done: as §1, §2

One may read the IC50 as the midpoint of a concentration-inhibition curve. As to `Cc1c(-c2[nH]c3ccc(C4C[C@H]5CC[C@@H](C4)N5CC(=O)N(C)C)cc3c2C(C)C)cn2cnnc2c1C` (single isomer, unassigned) [Example 119], the 50% inhibitory concentration (IC50) amounted to 12.9 nM against human TLR7, 103 nM on human TLR8 and 1020 nM against human TLR9.
For `Cc1c(-c2[nH]c3ccc(C4C[C@H]5CC[C@@H](C4)N5CC4(C)COC4)cc3c2C(C)C)cn2cnnc2c1C` (single isomer, unassigned) [Example 120], in that order: 6.7 nM, 45.9 nM and 3800 nM.
For `Cc1c(-c2[nH]c3ccc(C4C[C@H]5CC[C@@H](C4)N5CC4(C)COC4)cc3c2C(C)C)cn2cnnc2c1C` (single isomer, unassigned) [Example 121], in that order: 3.2 nM, 47.6 nM and 4840 nM.
For `Cc1c(-c2[nH]c3ccc(C4C[C@H]5CC[C@@H](C4)N5C4COC4)cc3c2C(C)C)cn2cnnc2c1C` (single isomer, unassigned) [Example 122], in that order: 2.3 nM, 98.9 nM and 5940 nM.
With `Cc1c(-c2[nH]c3ccc(C4C[C@H]5CC[C@@H](C4)N5C4COC4)cc3c2C(C)C)cn2cnnc2c1C` (single isomer, unassigned) [Example 123], the IC50 was found to be 7.6 nM against human TLR7, 151 nM against human TLR8 and 8480 nM at human TLR9.
For `CC(C)c1c(-c2ccc3nncn3c2)[nH]c2ccc(C3CCNCC3)cc12` [Example 1, 6-(3-isopropyl-5-(piperidin-4-yl)-1H-indol-2-yl)-[1,2,4]triazolo[4,3-a]pyridine], in that order: 22.8 nM, 140 nM and 902 nM.
On the same counts, the results for `Cc1cc(-c2[nH]c3ccc(C4CCNCC4)cc3c2C(C)C)cn2cnnc12` [Example 2, 6-(3-isopropyl-5-(piperidin-4-yl)-1H-indol-2-yl)-8-methyl-[1,2,4]triazolo[4,3-a]pyridine] are 4.8 nM, 12.5 nM and 528 nM.
For `Cc1nnc2ccc(-c3[nH]c4ccc(C5CCNCC5)cc4c3C(C)C)cn12` [Example 3, 6-(3-isopropyl-5-(piperidin-4-yl)-1H-indol-2-yl)-3-methyl-[1,2,4]triazolo[4,3-a]pyridine], in that order: 27.1 nM, 40.7 nM and 340 nM.
In the case of `Cc1cc2nncn2cc1-c1[nH]c2ccc(C3CCNCC3)cc2c1C(C)C` [Example 4, 6-(3-isopropyl-5-(piperidin-4-yl)-1H-indol-2-yl)-7-methyl-[1,2,4]triazolo[4,3-a]pyridine], the IC50 came out at 56.7 nM against human TLR7, 2340 nM against human TLR8 and 2430 nM against human TLR9.
On the same counts, the results for `Cc1c(-c2[nH]c3ccc(C4CCNCC4)cc3c2C(C)C)ccc2nncn12` [Example 5, 6-(3-isopropyl-5-(piperidin-4-yl)-1H-indol-2-yl)-5-methyl-[1,2,4]triazolo[4,3-a]pyridine] are 154 nM, 133 nM and 1240 nM.
For `Cc1cc(-c2[nH]c3ccc(C4CCNCC4)cc3c2C(C)C)cn2c(C)nnc12` [Example 6, 6-(3-isopropyl-5-(piperidin-4-yl)-1H-indol-2-yl)-3,8-dimethyl-[1,2,4]triazolo[4,3-a]pyridine], in that order: 5.2 nM, 18.9 nM and 486 nM.
On the same counts, the results for `COCc1nnc2ccc(-c3[nH]c4ccc(C5CCNCC5)cc4c3C(C)C)cn12` [Example 7, 6-(3-isopropyl-5-(piperidin-4-yl)-1H-indol-2-yl)-3-(methoxymethyl)-[1,2,4]triazolo[4,3-a]pyridine] are 156 nM, 1230 nM and 3230 nM.
In the case of `Cc1c(-c2[nH]c3ccc(C4CCNCC4)cc3c2C(C)C)cn2cnnc2c1C` [Example 8, 6-(3-isopropyl-5-(piperidin-4-yl)-1H-indol-2-yl)-7,8-dimethyl-[1,2,4]triazolo[4,3-a] pyridine], the IC50 against human TLR7 amounted to 5.2 nM; at human TLR8, 29.6 nM; against human TLR9, 1880 nM.
